Data as given in US6410480B1, “Herbicidally active 3-hydroxy-4-aryl-5-oxopyrazoline derivatives” (Syngenta Crop Protection, Inc., priority 1998, dated 2002).

Columns and labels:
Format in all cases: in vivo
Alopecurus [1] = experiment: Example B2: post-emergence herbicidal action, comparison with prior art; settings: 3- to 6-leaf stage, 500 g of ai/ha, 3 weeks after application, scale 1-9
Method: (§1) Monocotyledonous and dicotyledonous weeds are grown in standard soil in plastic pots under greenhouse conditions. The test substances are applied at the 3- to 6-leaf stage of the test plants. The test substances are applied (500 l of water/ha) as an aqueous suspension (prepared using a 25% wettable powder (Example F3, b)) or as an emulsion (prepared using a 25% emulsion concentrate (Example F1, c)) at an application rate of 500 g of active substance/ha. 3 weeks after the application, evaluation is carried out using a nine-level scale of ratings (1=complete damage, 9=no effect). Ratings of 1 to 4 (in particular 1 to 3) mean a good to very good herbicidal action. Test plants: Alopecurus (Alo), Avena (Ave), Lolium (Lol), Setaria (Set), Panicum (Pan), Sorghum (Sor), Digitaria (Dig), Echinocloa (Ech) and Brachiaria (Bra).

Brachiaria [2] = experiment: Example B1: pre-emergence herbicidal action, comparison with prior art; settings: 500 g of ai/ha, 3 weeks after application, scale 1-9
Text: (§2) Monocotyledonous and dicotyledonous weeds are sown in standard soil in plastic pots. Immediately after sowing, the test substances are applied (500 l of water/ha) as an aqueous suspension (prepared using a 25% wettable powder (Example F3, b)) or as an emulsion (prepared using a 25% emulsion concentrate (Example F1, c)). The application rate is 500 g of active substance/ha. The test plants are subsequently grown under optimum conditions in a greenhouse. 3 weeks after the application, evaluation is carried out using a nine-level scale of ratings (1=complete damage, 9=no effect). Ratings of 1 to 4 (in particular 1 to 3) mean a good to very good herbicidal action. Test plants: Alopecurus (Alo), Avena (Ave), Lolium (Lot), Setaria (Set), Panicum (Pan), Sorghum (Sor), Digitaria (Dig), Echinocloa (Ech) and Brachiaria (Bra).

Avena [3] = experiment: as above; settings: 500 g of ai/ha, 3 weeks after application, scale 1-9
Text: as §2

Digitaria [4] = experiment: as above; settings: 500 g of ai/ha, 3 weeks after application, scale 1-9
Text: as §2

Alopecurus [5] = experiment: as above; settings: 500 g of ai/ha, 3 weeks after application, scale 1-9
Text: as §2

Panicum [6] = experiment: as above; parameters: key: 1=complete damage; 9=no effect; Ratings of 1 to 4 (in particular 1 to 3) mean a good to very good herbicidal action; settings: 500 g of ai/ha, 3 weeks after application, scale 1-9
Text: as §2

Setaria [7] = experiment: as above; parameters: key: 1=complete damage; 9=no effect; Ratings of 1 to 4 (in particular 1 to 3) mean a good to very good herbicidal action; settings: 500 g of ai/ha, 3 weeks after application, scale 1-9
Text: as §2

Sorghum [8] = experiment: as above; parameters: key: 1=complete damage; 9=no effect; Ratings of 1 to 4 (in particular 1 to 3) mean a good to very good herbicidal action; settings: 500 g of ai/ha, 3 weeks after application, scale 1-9
Text: as §2

Lolium [9] = experiment: as above; parameters: key: 1=complete damage; 9=no effect; Ratings of 1 to 4 (in particular 1 to 3) mean a good to very good herbicidal action; settings: 500 g of ai/ha, 3 weeks after application, scale 1-9
Text: as §2

Echinocloa [10] = experiment: as above; parameters: key: 1=complete damage; 9=no effect; Ratings of 1 to 4 (in particular 1 to 3) mean a good to very good herbicidal action; settings: 500 g of ai/ha, 3 weeks after application, scale 1-9
Text: as §2

Panicum [11] = experiment: Example B2: post-emergence herbicidal action, comparison with prior art; parameters: key: 1=complete damage; 9=no effect; Ratings of 1 to 4 (in particular 1 to 3) mean a good to very good herbicidal action; settings: 3- to 6-leaf stage, 500 g of ai/ha, 3 weeks after application, scale 1-9
Method: as §1

Brachiaria [12] = experiment: as above; parameters: key: 1=complete damage; 9=no effect; Ratings of 1 to 4 (in particular 1 to 3) mean a good to very good herbicidal action; settings: 3- to 6-leaf stage, 500 g of ai/ha, 3 weeks after application, scale 1-9
Method: as §1

Avena [13] = experiment: as above; parameters: key: 1=complete damage; 9=no effect; Ratings of 1 to 4 (in particular 1 to 3) mean a good to very good herbicidal action; settings: 3- to 6-leaf stage, 500 g of ai/ha, 3 weeks after application, scale 1-9
Method: as §1

Setaria [14] = experiment: as above; parameters: key: 1=complete damage; 9=no effect; Ratings of 1 to 4 (in particular 1 to 3) mean a good to very good herbicidal action; settings: 3- to 6-leaf stage, 500 g of ai/ha, 3 weeks after application, scale 1-9
Method: as §1

Sorghum [15] = experiment: as above; parameters: key: 1=complete damage; 9=no effect; Ratings of 1 to 4 (in particular 1 to 3) mean a good to very good herbicidal action; settings: 3- to 6-leaf stage, 500 g of ai/ha, 3 weeks after application, scale 1-9
Method: as §1

Lolium [16] = experiment: as above; parameters: key: 1=complete damage; 9=no effect; Ratings of 1 to 4 (in particular 1 to 3) mean a good to very good herbicidal action; settings: 3- to 6-leaf stage, 500 g of ai/ha, 3 weeks after application, scale 1-9
Method: as §1

Digitaria [17] = experiment: as above; parameters: key: 1=complete damage; 9=no effect; Ratings of 1 to 4 (in particular 1 to 3) mean a good to very good herbicidal action; settings: 3- to 6-leaf stage, 500 g of ai/ha, 3 weeks after application, scale 1-9
Method: as §1

Echinocloa [18] = experiment: as above; parameters: key: 1=complete damage; 9=no effect; Ratings of 1 to 4 (in particular 1 to 3) mean a good to very good herbicidal action; settings: 3- to 6-leaf stage, 500 g of ai/ha, 3 weeks after application, scale 1-9
Method: as §1

Avena [19] = experiment: Example B4: post-emergence herbicidal action of compounds of the invention; parameters: key: 1=complete damage; 9=no effect; Ratings of 1 to 4 (in particular 1 to 3) mean a good to very good herbicidal action; settings: 3- to 6-leaf stage, 250 g of active substance/ha, 3 weeks after application, scale 1-9
Method: as §1, with “of 250” for “of 500”, “plants:” for “plants: Alopecurus (Alo),”, “Setaria (Set).” for “Setaria (Set), Panicum (Pan), Sorghum (Sor), Digitaria (Dig), Echinocloa (Ech) and Brachiaria (Bra).”

Setaria [20] = experiment: as above; parameters: key: 1=complete damage; 9=no effect; Ratings of 1 to 4 (in particular 1 to 3) mean a good to very good herbicidal action; settings: 3- to 6-leaf stage, 250 g of active substance/ha, 3 weeks after application, scale 1-9
Method: as §1, with “of 250” for “of 500”, “plants:” for “plants: Alopecurus (Alo),”, “Setaria (Set).” for “Setaria (Set), Panicum (Pan), Sorghum (Sor), Digitaria (Dig), Echinocloa (Ech) and Brachiaria (Bra).”

Lolium [21] = experiment: as above; parameters: key: 1=complete damage; 9=no effect; Ratings of 1 to 4 (in particular 1 to 3) mean a good to very good herbicidal action; settings: 3- to 6-leaf stage, 250 g of active substance/ha, 3 weeks after application, scale 1-9
Method: as §1, with “of 250” for “of 500”, “plants:” for “plants: Alopecurus (Alo),”, “Setaria (Set).” for “Setaria (Set), Panicum (Pan), Sorghum (Sor), Digitaria (Dig), Echinocloa (Ech) and Brachiaria (Bra).”

Avena [22] = experiment: Example B3: pre-emergence herbicidal action of compounds of the invention; parameters: key: 1=complete damage; 9=no effect; Ratings of 1 to 4 (in particular 1 to 3) mean a good to very good herbicidal action; settings: 500 g of active substance/ha, 3 weeks after application, scale 1-9
Method: as §2, with “grown” for “sown”, “Directly” for “Immediately”, “greenhouse” for “greenhouse.”, “plants:” for “plants: Alopecurus (Alo),”, “(Lol),” for “(Lot),”, “(Set).” for “(Set), Panicum (Pan), Sorghum (Sor), Digitaria (Dig), Echinocloa (Ech) and Brachiaria (Bra).”

Setaria [23] = experiment: as above; parameters: key: 1=complete damage; 9=no effect; Ratings of 1 to 4 (in particular 1 to 3) mean a good to very good herbicidal action; settings: 500 g of active substance/ha, 3 weeks after application, scale 1-9
Method: as §2, with “grown” for “sown”, “Directly” for “Immediately”, “greenhouse” for “greenhouse.”, “plants:” for “plants: Alopecurus (Alo),”, “(Lol),” for “(Lot),”, “(Set).” for “(Set), Panicum (Pan), Sorghum (Sor), Digitaria (Dig), Echinocloa (Ech) and Brachiaria (Bra).”

Lolium [24] = experiment: as above; parameters: key: 1=complete damage; 9=no effect; Ratings of 1 to 4 (in particular 1 to 3) mean a good to very good herbicidal action; settings: 500 g of active substance/ha, 3 weeks after application, scale 1-9
Method: as §2, with “grown” for “sown”, “Directly” for “Immediately”, “greenhouse” for “greenhouse.”, “plants:” for “plants: Alopecurus (Alo),”, “(Lol),” for “(Lot),”, “(Set).” for “(Set), Panicum (Pan), Sorghum (Sor), Digitaria (Dig), Echinocloa (Ech) and Brachiaria (Bra).”

SMILES: Cc1cc(C)c(C2C(=O)N3CCCCCN3C2=O)c(C)c1 [compound A, reference compound]
- Post-emergence action, Alo (rating) (Alopecurus [1]): 5
- Pre-emergence action, Bra (rating) (Brachiaria [2]): 3
- Pre-emergence action, Ave (rating) (Avena [3]): 7
- Pre-emergence action, Dig (rating) (Digitaria [4]): 7
- Pre-emergence action, Alo (rating) (Alopecurus [5]): 5
- Pre-emergence action, Pan (rating) (Panicum [6]): 7
- Pre-emergence action, Set (rating) (Setaria [7]): 3
- Pre-emergence action, Sor (rating) (Sorghum [8]): 6
- Pre-emergence action, Lol (rating) (Lolium [9]): 4
- Pre-emergence action, Ech (rating) (Echinocloa [10]): 5
- Post-emergence action, Pan (rating) (Panicum [11]): 2
- Post-emergence action, Bra (rating) (Brachiaria [12]): 2
- Post-emergence action, Ave (rating) (Avena [13]): 2
- Post-emergence action, Set (rating) (Setaria [14]): 4
- Post-emergence action, Sor (rating) (Sorghum [15]): 3
- Post-emergence action, Lol (rating) (Lolium [16]): 5
- Post-emergence action, Dig (rating) (Digitaria [17]): 5
- Post-emergence action, Ech (rating) (Echinocloa [18]): 1

SMILES: Cc1cc(C)c(-c2c(O)n3n(c2=O)CCOCC3)c(Br)c1 [1.078]
- Post-emergence action, Ave (rating) (Avena [19]): 1
- Post-emergence action, Set (rating) (Setaria [20]): 4
- Post-emergence action, Lol (rating) (Lolium [21]): 1

SMILES: CCc1cc(Br)cc(C)c1-c1c(OC(=O)C(C)(C)C)n2n(c1=O)CCOCC2 [1.085]
- Post-emergence action, Ave (rating) (Avena [19]): 1
- Post-emergence action, Set (rating) (Setaria [20]): 2
- Post-emergence action, Lol (rating) (Lolium [21]): 2

SMILES: C#Cc1cc(C)cc(C)c1-c1c(OC(=O)C(C)(C)C)n2n(c1=O)CCOCC2 [1.016]
- Post-emergence action, Ave (rating) (Avena [19]): 3
- Post-emergence action, Set (rating) (Setaria [20]): 2
- Post-emergence action, Lol (rating) (Lolium [21]): 2

SMILES: CCc1cc(C)cc(C)c1-c1c(O)n2n(c1=O)CCOCC2 [1.004]
- Pre-emergence action, Ave (rating) (Avena [22]): 1
- Pre-emergence action, Set (rating) (Setaria [23]): 2
- Pre-emergence action, Lol (rating) (Lolium [24]): 1

SMILES: Cc1cc(Br)c(-c2c(O)n3n(c2=O)CCOCC3)c(Br)c1 [1.088]
- Post-emergence action, Ave (rating) (Avena [19]): 4
- Post-emergence action, Set (rating) (Setaria [20]): 3
- Post-emergence action, Lol (rating) (Lolium [21]): 4

SMILES: CCc1cc(C)cc(C)c1-c1c(OC(=O)C(C)(C)C)n2n(c1=O)CCOCC2 [1.005]
- Post-emergence action, Ave (rating) (Avena [19]): 1
- Post-emergence action, Set (rating) (Setaria [20]): 2
- Post-emergence action, Lol (rating) (Lolium [21]): 2

SMILES: Cc1cc(C)c(-c2c(O)n3n(c2=O)CCOCC3)c(C)c1 [1.001]
- Post-emergence action, Alo (rating) (Alopecurus [1]): 2
- Pre-emergence action, Bra (rating) (Brachiaria [2]): 2
- Pre-emergence action, Ave (rating) (Avena [3]): 4
- Pre-emergence action, Dig (rating) (Digitaria [4]): 2
- Pre-emergence action, Alo (rating) (Alopecurus [5]): 3
- Pre-emergence action, Pan (rating) (Panicum [6]): 1
- Pre-emergence action, Set (rating) (Setaria [7]): 1
- Pre-emergence action, Sor (rating) (Sorghum [8]): 1
- Pre-emergence action, Lol (rating) (Lolium [9]): 1
- Pre-emergence action, Ech (rating) (Echinocloa [10]): 1
- Pre-emergence action, Ave (rating) (Avena [22]): 4
- Pre-emergence action, Set (rating) (Setaria [23]): 1
- Pre-emergence action, Lol (rating) (Lolium [24]): 1
- Post-emergence action, Pan (rating) (Panicum [11]): 1
- Post-emergence action, Bra (rating) (Brachiaria [12]): 1
- Post-emergence action, Ave (rating) (Avena [13]): 1
- Post-emergence action, Set (rating) (Setaria [14]): 1
- Post-emergence action, Sor (rating) (Sorghum [15]): 1
- Post-emergence action, Lol (rating) (Lolium [16]): 1
- Post-emergence action, Dig (rating) (Digitaria [17]): 1
- Post-emergence action, Ech (rating) (Echinocloa [18]): 1
- Post-emergence action, Ave (rating) (Avena [19]): 1
- Post-emergence action, Set (rating) (Setaria [20]): 2
- Post-emergence action, Lol (rating) (Lolium [21]): 1

SMILES: CCc1cc(C)cc(CC)c1-c1c(O)n2n(c1=O)CCOCC2 [Compound No. 1.007]
- Post-emergence action, Ave (rating) (Avena [19]): 1
- Post-emergence action, Set (rating) (Setaria [20]): 1
- Post-emergence action, Lol (rating) (Lolium [21]): 1

SMILES: CCc1cc(C)cc(CC)c1-c1c(OC(=O)C(C)(C)C)n2n(c1=O)CCOCC2 [1.008]
- Pre-emergence action, Ave (rating) (Avena [22]): 1
- Pre-emergence action, Set (rating) (Setaria [23]): 1
- Pre-emergence action, Lol (rating) (Lolium [24]): 1
